Reference: PMC10257291, “Biological activities of extracts and compounds from Thai Kae-Lae (Maclura cochinchinensis (Lour.) Corner)” (BMC Complementary Medicine and Therapies, 2023)

Assays:
WT1 protein = tested on: WT1 protein; parameters: method as in PMID 29274817; conditions: compounds from Mah-Lueang; cited from earlier work

Description for red blood cells: The whole blood samples were obtained from normal volunteers. Red blood cells were separated by centrifugation and washed 2 times with 0.9% NaCl. Then, 2% RBC suspension was incubated with crude fractional extracts and compounds at 37 °C for 30 min. Triton-X 100 (2%) and NaCl (0.9%) were positive and negative controls, respectively. Then, the supernatant was collected, and haemoglobin concentration was measured by spectrophotometry at 540 nm. The haemolysis induction was calculated using the following equation:5 %Haemolysisinduction=Absorbance of sample/Absorbance of positive contr×100

| Compound | decrease of WT1 protein in KG-1a cells (WT1 protein) | Haemolysis (%) (red blood cells) |
| --- | --- | --- |
| CC(C)=C1C[C@@H]2O[C@@]2(C)CC/C=C(\C)CC1=O [Germacrone-4,5-epoxide] | 92.22% |  |
| CC(C)=C1C[C@H]2[C@@H](CC[C@]2(C)O)[C@](C)(O)CC1=O [zedoarondiol] | 95.52% |  |
| Triton X100 [0.05% Triton X100] |  | 100% |
